This note sets out measurements from the supplement of paper PMC11061612.

Structures are written as SMILES.

Holding throughout (experiment): Bliss excess, mean over the matrix (fraction); higher = more synergy
Test [1] deals with CAL-62 (Thyroid Gland Carcinoma). Put shortly:
(§1)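 Cell lines grown in DMEM/F12 or RPMI with 10% FBS were plated in 1536-well plates and held 24 hours at 37°C, 5% CO2 before 72 hours of exposure to two-drug dose matrices, with DMSO typically at 0.2%. CellTiter-Glo 2.0 luminescence gave viability, which was converted to inhibition. Vehicle wells were set to 0 and blank wells to 1. Combination Emax is the second-highest inhibition in the matrix, and Bliss excess is the observed combination effect minus the expected EA + EB − EA·EB, where EA and EB are the single-agent effects.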

Test [2] deals with COLO-680N (Esophageal Squamous Cell Carcinoma). Put shortly:
as §1

In test [3] the test system is FADU (Head and Neck Carcinoma). In outline: as §1
In test [4] the test system is GP5d (Colorectal Carcinoma). In outline: as §1
Test [5] relates to HEC-1 (Endometrial Carcinoma). Put shortly: as §1
Test [6] has as its system KE-37 (T-Lymphoblastic Leukemia). In outline: as §1
Test [7] relates to LB996-RCC (Kidney Carcinoma). Put shortly:
as §1

Test [8] has as its system LK-2 (Squamous Cell Lung Carcinoma). Put shortly:
as §1

A further test has as its system LN-229 (Glioblastoma). Put shortly: as §1
Test [9] deals with MFE-280 (Endometrial Carcinoma). In outline: as §1
Test [10] deals with MKN45 (Gastric Carcinoma). In outline:
as §1

Test [11] concerns NCI-H446 (Small Cell Lung Carcinoma). Put shortly:
as §1

Test [12] deals with OAW-42 (Ovarian Carcinoma). In outline: as §1
Test [13] relates to PANC-03-27 (Pancreatic Carcinoma). Put shortly: as §1
The test system of test [14] is PSN1 (Pancreatic Carcinoma). Put shortly:
as §1

Test [15] deals with REH (B-Lymphoblastic Leukemia). Put shortly:
as §1

For test [16], the system named is RERF-LC-Sq1 (Squamous Cell Lung Carcinoma). Put shortly:
as §1

In test [17] the test system is RKN (Other Solid Carcinomas). In outline: as §1
For test [18], the system named is SHP-77 (Small Cell Lung Carcinoma). Put shortly:
as §1

Test [19] relates to TE-8 (Esophageal Squamous Cell Carcinoma). Put shortly:
as §1

With `Cn1cnc2c(F)c(Nc3ccc(Br)cc3Cl)c(C(=O)NOCCO)cc21` [Selumetinib] + CC(C)n1c(=O)n(C)c2cnc3cc(F)c(-c4ccc(OCCCN5CCCCC5)nc4)cc3c21 [AZD1390] (first compound max 10 µM, 7x7, partner max 0.3 µM), the Bliss excess was -0.0319 in [1]; -0.0022 in test [2]; -0.004 in test [3]; 0.0142 in test [4]; -0.0412 in [5]; 0.0255 in [6]. For the same compound, the Bliss excess in [7] was -0.0262; in test [8], 0.007; with LN-229 (Glioblastoma), -0.0563; in test [9], -0.0427; in test [10] it was -0.0388; in test [11], -0.0469. Also, the Bliss excess in [12] is -0.0392; in test [13], 0.01; in test [14], -0.0639; in test [15], -0.0323; in [16], 0.0117; in test [17], 0.0378. Further, the Bliss excess was -0.0038 in test [18] and 0.0186 in [19].
`CN(CCO)CC[C@H](CSc1ccccc1)Nc1ccc(S(=O)(=O)NC(=O)c2ccc(N3CCC([C@@H](O)c4ccccc4-c4ccc(Cl)cc4)CC3)cc2)cc1S(=O)(=O)C(F)(F)F` [AZD4320] + Cc1cc2ncnn2cc1Nc1ncc2c(n1)n(C1CCOCC1)c(=O)n2C [AZD7648] (first compound max 1 µM, 7x7, partner max 10 µM): the Bliss excess in [1] was -0.0086; in [2], -0.0437; in [3], -0.016; in [4], -0.052; in test [5] it was -0.0402; in test [6], 0.0363. The Bliss excess is -0.0232 in test [7]; -0.0075 in test [8]; -0.0393 with LN-229 (Glioblastoma); -0.0471 in test [9]; -0.0744 in test [10]; 0.0292 in test [11]. Besides, the Bliss excess in test [12] was -0.0118; in [13], -0.061; in test [14] it was -0.0361; in test [15] it was 0.0041; in test [16], -0.0418; in [17], -0.0467. Also, the Bliss excess in test [18] was -0.0012; in [19], -0.0357.
For the compound `C[C@@H](c1ccc2nccn2c1)n1nnc2ncc(-c3cnn(C)c3)nc21` [Savolitinib] + Cc1c2c(nn1C)CSCc1cc(n(C)n1)CSc1cc(c3ccccc3c1)OCCCc1c(C(=O)O)n(C)c3c-2c(Cl)ccc13 [AZD5991] (first compound max 1 µM, 7x7, partner max 1 µM), the Bliss excess was -0.022 in test [1]; -0.0291 in test [2]; -0.0687 in test [3]; -0.0912 in test [4]; -0.0541 in [5]; -0.0335 in test [6]. The Bliss excess in [7] is -0.0372; in test [8] it was 0.007; with LN-229 (Glioblastoma), -0.0372; in [9] it was -0.052; in test [10] it was -0.0133; in test [11], 0.0471. The Bliss excess in test [12] was -0.0474; in test [13] it was -0.0541; in test [14], -0.0182; in [15] it was -0.0369; in test [16] it was -0.009; in test [17], -0.0706. Besides, the results for the Bliss excess in test [18] and in test [19] were -0.0662 and -0.0142, respectively.
Consider `COc1cccc(OCCCN)c1-c1cc(Nc2cnc(C#N)cn2)n[nH]1` [Prexasertib] + CCc1c2c(nc3ccc(O)cc13)-c1cc3c(c(=O)n1C2)COC(=O)[C@]3(O)CC [SN-38] (first compound max 1 µM, 7x7, partner max 0.3 µM), for which the Bliss excess in test [1] is -0.0543; in [2], 0.0609; in test [3], -0.0233; in [4], -0.0173; in [5], 0.0893; in test [6], -0.0182. Moreover, the Bliss excess is -0.0334 in test [7]; 0.0915 in test [8]; -0.022 with LN-229 (Glioblastoma); 0.115 in test [9]; -0.0493 in [10]; 0.0756 in [11]. Besides, the Bliss excess in test [12] was -0.0263; in test [13], -0.0381; in [14], 0.0569; in test [15], -0.0054; in test [16], -0.0081; in [17], 0.134. Also, the Bliss excess in [18] came out at 0.121; in test [19], 0.0456.
`COc1nnc2ccc(N3CCC(c4ccc(OCCN5CCN(C)C(=O)[C@H]5C)cc4)CC3)nn12` [AZD5153] + Cc1c2c(nn1C)CSCc1cc(n(C)n1)CSc1cc(c3ccccc3c1)OCCCc1c(C(=O)O)n(C)c3c-2c(Cl)ccc13 [AZD5991] (first compound max 1 µM, 7x7, partner max 1 µM): the Bliss excess in [1] was -0.057; in [2], -0.0205; in [3] it was -0.0366; in [4], -0.0569; in [5], 0.0132; in [6] it was 0.116. The Bliss excess in test [7] is 0.0015; in test [8] it was 0.0184; with LN-229 (Glioblastoma), 0.0175; in [9] it was -0.0473; in [10] it was -0.0635; in test [11], 0.0153. In addition, the Bliss excess is 0.0444 in test [12]; -0.0183 in test [13]; -0.0263 in test [14]; -0.0621 in test [15]; -0.0393 in test [16]; -0.0692 in [17]. Besides, the Bliss excess in [18] came to 0.0387; in [19], 0.0322.
With `COc1nnc2ccc(N3CCC(c4ccc(OCCN5CCN(C)C(=O)[C@H]5C)cc4)CC3)nn12` [AZD5153] + C=CCn1c(=O)c2cnc(Nc3ccc(N4CCN(C)CC4)cc3)nc2n1-c1cccc(C(C)(C)O)n1 [AZD1775] (first compound max 1 µM, partner max 1 µM), the Bliss excess is -0.0228 in test [1]; -0.0746 in test [2]; -0.0273 in test [3]; -0.0279 in test [4]; 0.0363 in test [5]; 0.0096 in test [6]. The Bliss excess is -0.052 in [7]; 0.0029 in test [8]; -0.039 in the test with LN-229 (Glioblastoma); -0.0779 in test [9]; -0.105 in test [10]; -0.0553 in test [11]. For the same compound, the Bliss excess is -0.0338 in [12]; -0.152 in test [13]; -0.0385 in test [14]; -0.0291 in test [15]; -0.1 in [16]; -0.0898 in test [17]. The values for the Bliss excess in test [18] and in test [19] were 0.0194 and -0.0426, respectively.
`CN(CCO)CC[C@H](CSc1ccccc1)Nc1ccc(S(=O)(=O)NC(=O)c2ccc(N3CCC([C@@H](O)c4ccccc4-c4ccc(Cl)cc4)CC3)cc2)cc1S(=O)(=O)C(F)(F)F` [AZD4320] + C1CN(CCC1(C(=O)N[C@@H](CCO)C2=CC=C(C=C2)Cl)N)C3=NC=NC4=C3C=CN4 [Capivasertib] (first compound max 1 µM, 7x7, partner max 3 µM): the Bliss excess in test [1] was -0.0463; in test [2], -0.0411; in test [3], -0.0268; in test [4], -0.0396; in [5] it was -0.0759; in test [6], 0.0185. Also, the Bliss excess was 0.0014 in test [7]; -0.0077 in [8]; -0.0443 in the test with LN-229 (Glioblastoma); 0.0092 in test [9]; -0.0977 in test [10]; 0.0316 in test [11]. For the same compound, the Bliss excess in test [12] was -0.0274; in test [13], -0.0481; in test [14] it was -0.0264; in test [15], 0.0197; in test [16], -0.0223; in test [17], -0.0321. In addition, the Bliss excess in test [18] was 0.0185; in test [19] it was -0.0074.
